This is an account of results in EP3186387B1, “METHOD OF DETERMINING THE ACTIVITY OF ENZYMES CONVERTING CYTOSINE DERIVATIVES TO URACIL DERIVATIVES IN CELLS, TISSUES AND ORGANISMS” (Univerzita Palackého v Olomouci, priority 2014, dated 2016).

In the experiment the test system is HeLa cells. In words: Determination of the deamination activity in adherent HeLa cells: signal of EdU/EdC in DNA, detected by anti-bromodeoxyuridine antibody or click reaction. The following applies: for ratios of EC50 in EdU and EdC (KEdU½/KEdC½): two hours of incubation, without FdU. Type of experiment: cell-based, Human. From the text: • Figure 1 The metabolism of EdC and EdCMP from the perspective of the deamination activity of some known deaminases in human cells. CDA - 2'-deoxycytidine/cytidine deaminase; dCK - 2'-deoxycytidine kinase; dCMPDA - 2'-deoxycytidine-5'-phosphate deaminase; cdN and mdN - cytosolic and mitochondrial pyrimidine specific 5'-deoxynucleotidase • Figure 2: Schematic depiction of determination of the activity of the enzymes transforming cytosine derivatives into uracil derivatives. • Figure 3: Determination of the deamination activity in HeLa cells using specific antibodies or using a click reaction (Example 1). The figure depicts the dependence of the average intensity of the signals on the used concentrations of EdU or EdC after two hours of incubation with various concentrations of EdU or EdC without the addition of FdU. Two methods were used for the detection of both modified nucleosides: A) detection with a click reaction with an azido dye (Alexa Fluor 488- azide); B) detection using primary anti-bromodeoxyuridine antibody and secondary antibody conjugated with Alexa Fluor 488. The measured intensities of the signals were processed in the Sigma Plot software, in which the curve was constructed and the half of maximal effective concentration (EC50) was determined. It is clear from the course of the graphs that EdC is not likely to be incorporated in the DNA. This was confirmed also by the mutual ratios between the measured values of the intensities obtained by the antibodies and by the click reaction. These ratios were 1.099 for EdU and 1.060 for EdC. […] For the determination, it is also possible to use other measured concentrations, because there was no saturation of the signal even at higher concentrations. • Figure 4 Time curve (Example 1). […] The incorporated nucleosides were detected using a click reaction with azidofluorochrome. • Figure 5: The comparison of the incorporation of FU and FC into HeLa cells when using various concentrations (Example 1). […] EdU was detected with antibodies. […]

Structures are written as SMILES.

For the compound `C#Cc1cn([C@H]2C[C@H](O)[C@@H](CO)O2)c(=O)nc1N` [EdC, 5-ethynyl-2'-deoxycytidine], for the setting “EdC around 5 µmol.l^-1, not in the saturation area”, the “concentration of EdU providing approximately such a signal as 5 µmol.l^-1 EdC” value was approximately 0.55 µmol/L. The “ratios of EC50 in EdU and EdC (KEdU½/KEdC½)” value amounted to 0.23 (detection performed by the antibodies) and 0.32 (detection performed by the click reaction).
